Measured values: US20250290117A1, “MOLECULAR PHENOTYPIC ANTIMICROBIAL SUSCEPTIBILITY TESTING” (priority 2024, published 2025)

What was measured:
[1] = test system: Escherichia coli; experiment: Molecular phenotypic antimicrobial susceptibility test (extraction or DNA purification prior to PCR); type: cell-based
Method: Detection of Molecular Phenotypic Antimicrobial Susceptibility. Disclosed herein are the methods for the detection of phenotypic antimicrobial susceptibility via molecular methods. The present invention describes how a specimen 100 with a known microbial load is incubated and then exposed to a panel of antimicrobial agents to determine sensitivity (prevention of growth) or resistance (allowance of growth) to the specific antimicrobial agents tested utilizing molecular methods.
Sample Collection. Specimens 100 are collected from patients using sterile collection processes that are employed in routine clinical care. Specimens are transported to the testing facility in boric acid preservative.
Preparation of the Specimens for Testing. […] The process for pathogen isolation includes steps of harvesting the pathogen (e.g., via centrifugation), isolating pathogen DNA via a DNA isolation and/or purification kit, and performing PCR on the pathogen DNA via PCR components (e.g., primers, enzymes, buffers) as would be known to the skilled artisan. […] This aliquot is used for antimicrobial susceptibility testing if indicated based on the pathogen detection results. […] Specimens 100 with lower pathogen loads could also be utilized in the antibiotic susceptibility phase of testing with or without a longer incubation period.
Preparation of Antimicrobial Susceptibility Testing Plates. Antimicrobial solutions are prepared at known concentrations. The specific antimicrobials and their concentrations are selected based on the pathogen of interest and the described antimicrobial resistance breakpoints for that specimen pathogen and antimicrobial combination. These antimicrobials have been selected based on those commonly utilized by healthcare providers in routine clinical care for the specific type of suspected infection. The number and types of antimicrobials utilized can be customized based on the infection source, pathogen detected, patient-specific factors such as allergies or other health conditions (e.g., chronic kidney disease or concurrent medication use), or healthcare provider preferences such as antimicrobial availability or cost.
The antimicrobial solutions are prepared in liquid culture media (such as Muller Hinton Broth) to achieve the desired antimicrobial concentration and are then stored at −80° C. until use. For a given specimen, each antimicrobial is tested at a single or multiple antimicrobial concentration(s) which is its established breakpoints for sensitivity. The antimicrobial solutions are prepared and plated out for each specific pathogen. […] This allows for evaluation of pathogen load when no antimicrobial is present.
Specimen Exposure to Antimicrobial Agents. The 1 mL aliquot of the specimen 100 previously mixed with culture media and incubated is obtained. Using optical density measurements as a guide, the specimen 100 is diluted to 0.5 McFarland.
Antimicrobial exposure plates are typically placed into an incubator for 12-16 hours.
Nucleic Acid Amplification of Antimicrobial Agent Exposed Pathogens. The antimicrobial exposure plate is removed after the period of incubation. The specimen then undergoes a purification or lysis step. For example, the specimen may undergo a purification step (e.g., magnetic bead-based or other separation protocol to isolate genetic material). In another example, the specimen may undergo a cell lysis step. For example, buffer (e.g., lysis buffer) may be added and incubated in the thermal cycler for preparation for direct PCR. Next, the specimen may undergo a polymerase chain reaction (PCR) testing protocol, whereby a semi-quantitative PCR method is utilized. This may be completed either with or without a specific extraction protocol step. The pathogens can be individually targeted and detected, or a universal genetic sequence can be utilized to detect the antimicrobial susceptibility of the specimen as a whole.

[2] = test system: pathogen of the specimen; experiment: Molecular phenotypic antimicrobial susceptibility test with direct PCR at various incubation timepoints (Table 7); type: cell-based
Method: Detection of Molecular Phenotypic Antimicrobial Susceptibility. Disclosed herein are the methods for the detection of phenotypic antimicrobial susceptibility via molecular methods. The present invention describes how a specimen 100 with a known microbial load is incubated and then exposed to a panel of antimicrobial agents to determine sensitivity (prevention of growth) or resistance (allowance of growth) to the specific antimicrobial agents tested utilizing molecular methods. Sample Collection. Specimens 100 are collected from patients using sterile collection processes that are employed in routine clinical care. Specimens are transported to the testing facility in boric acid preservative. […] The process for pathogen isolation includes steps of harvesting the pathogen (e.g., via centrifugation), isolating pathogen DNA via a DNA isolation and/or purification kit, and performing PCR on the pathogen DNA via PCR components (e.g., primers, enzymes, buffers) as would be known to the skilled artisan. […] This aliquot is used for antimicrobial susceptibility testing if indicated based on the pathogen detection results. […] Specimens 100 with lower pathogen loads could also be utilized in the antibiotic susceptibility phase of testing with or without a longer incubation period. […] Antimicrobial solutions are prepared at known concentrations. The specific antimicrobials and their concentrations are selected based on the pathogen of interest and the described antimicrobial resistance breakpoints for that specimen pathogen and antimicrobial combination. These antimicrobials have been selected based on those commonly utilized by healthcare providers in routine clinical care for the specific type of suspected infection. The number and types of antimicrobials utilized can be customized based on the infection source, pathogen detected, patient-specific factors such as allergies or other health conditions (e.g., chronic kidney disease or concurrent medication use), or healthcare provider preferences such as antimicrobial availability or cost. The antimicrobial solutions are prepared in liquid culture media (such as Muller Hinton Broth) to achieve the desired antimicrobial concentration and are then stored at −80° C. until use. For a given specimen, each antimicrobial is tested at a single or multiple antimicrobial concentration(s) which is its established breakpoints for sensitivity. The antimicrobial solutions are prepared and plated out for each specific pathogen. […] This allows for evaluation of pathogen load when no antimicrobial is present. Specimen Exposure to Antimicrobial Agents. The 1 mL aliquot of the specimen 100 previously mixed with culture media and incubated is obtained. Using optical density measurements as a guide, the specimen 100 is diluted to 0.5 McFarland. […] Antimicrobial exposure plates are typically placed into an incubator for 12-16 hours. […] Nucleic Acid Amplification of Antimicrobial Agent Exposed Pathogens. The antimicrobial exposure plate is removed after the period of incubation. The specimen then undergoes a purification or lysis step. For example, the specimen may undergo a purification step (e.g., magnetic bead-based or other separation protocol to isolate genetic material). In another example, the specimen may undergo a cell lysis step. For example, buffer (e.g., lysis buffer) may be added and incubated in the thermal cycler for preparation for direct PCR. Next, the specimen may undergo a polymerase chain reaction (PCR) testing protocol, whereby a semi-quantitative PCR method is utilized. This may be completed either with or without a specific extraction protocol step. The pathogens can be individually targeted and detected, or a universal genetic sequence can be utilized to detect the antimicrobial susceptibility of the specimen as a whole. The control wells are utilized as a threshold for determining antimicrobial sensitivity or resistance. […] Antimicrobial Susceptibility Result Interpretation.

[3] = E. coli isolate 4, Ct at control (average) 17.5733
[4] = E. coli isolate 4, at sensitive breakpoint
[5] = E. coli isolate 5, Ct at control (average) 21.0933
[6] = E. coli isolate 5, at sensitive breakpoint
[7] = E. coli isolate 1189, antibiotic incubation time 4 hours
[8] = E. coli isolate 1189, antibiotic incubation time 4 hours, control average Ct […]
[9] = E. coli isolate 1189, antibiotic incubation time 6 hours
[10] = E. coli isolate 1189, antibiotic incubation time 6 hours, control average Ct 16.992
[11] = E. coli isolate 1189, antibiotic incubation time 8 hours
[12] = E. coli isolate 1189, antibiotic incubation time 8 hours, control average Ct […]
[13] = E. coli isolate 1189, antibiotic incubation time 10 hours
[14] = E. coli isolate 1189, antibiotic incubation time 10 hours, control average Ct 15.995
[15] = E. coli isolate 1189, antibiotic incubation time 12 hours
[16] = E. coli isolate 1189, antibiotic incubation time 12 hours, control average Ct 15.495
[17] = E. coli isolate 1189, antibiotic incubation time 14 hours
[18] = E. coli isolate 1189, antibiotic incubation time 14 hours, control average Ct 15.826
[19] = E. coli isolate 1189, antibiotic incubation time 16 hours
[20] = E. coli isolate 1189, antibiotic incubation time 16 hours, control average Ct 14.880
[21] = E. coli isolate 1, Ct at control (average) 21.238
[22] = E. coli isolate 1, at sensitive breakpoint
[23] = E. coli isolate 2, Ct at control (average) 21.270
[24] = E. coli isolate 2, at sensitive breakpoint
[25] = E. coli isolate 3, Ct at control (average) 22.0995
[26] = E. coli isolate 3, at sensitive breakpoint

Row | Compound | Ct at Sensitive Breakpoint [1, 3] | Molecular Antimicrobial Susceptibility Result [1, 4] | Ct at Sensitive Breakpoint [1, 5] | Molecular Antimicrobial Susceptibility Result [1, 6] | Molecular Antimicrobial Susceptibility Result [2, 7] | Ct at Sensitive Breakpoint [2, 8] | Molecular Antimicrobial Susceptibility Result [2, 9] | Ct at Sensitive Breakpoint [2, 10] | Molecular Antimicrobial Susceptibility Result [2, 11] | Ct at Sensitive Breakpoint [2, 12] | Molecular Antimicrobial Susceptibility Result [2, 13] | Ct at Sensitive Breakpoint [2, 14] | Molecular Antimicrobial Susceptibility Result [2, 15] | Ct at Sensitive Breakpoint [2, 16] | Molecular Antimicrobial Susceptibility Result [2, 17] | Ct at Sensitive Breakpoint [2, 18] | Molecular Antimicrobial Susceptibility Result [2, 19] | Ct at Sensitive Breakpoint [2, 20] | Ct at Sensitive Breakpoint [1, 21] | Molecular Antimicrobial Susceptibility Result [1, 22] | also measured
1 | CO[C@@]1(NC(=O)Cc2cccs2)C(=O)N2C(C(=O)O)=C(COC(N)=O)CS[C@@H]21 [Cefoxitin] | 24.09 | Sensitive (Antimicrobial wells with pathogen load detected below the control wells (typically >2 cycle thresholds later) may be reported as Sensitive) | 24.72 | Sensitive (Antimicrobial wells with pathogen load detected below the control wells (typically >2 cycle thresholds later) may be reported as Sensitive) | Resistant | 17.798 | Resistant | 15.865 | Resistant | 16.837 | Resistant | 14.899 | Resistant | 15.750 | Resistant | 15.333 | Resistant | 13.704 | – | – | –
2 | CO/N=C(\C(=O)N[C@@H]1C(=O)N2C(C(=O)O)=C(CSc3nc(=O)c(=O)[nH]n3C)CS[C@H]12)c1csc(N)n1 [Ceftriaxone] | 17.74 | Resistant | 25.48 | Sensitive (Antimicrobial wells with pathogen load detected below the control wells (typically >2 cycle thresholds later) may be reported as Sensitive) | Resistant | 16.185 | Resistant | 16.838 | Resistant | 17.431 | Resistant | 16.347 | Resistant | 16.258 | Resistant | 14.724 | Resistant | 15.840 | 19.368 | Resistant | Ct at Sensitive Breakpoint [1, 23]: 20.665; Molecular Antimicrobial Susceptibility Result [1, 24]: Resistant; Ct at Sensitive Breakpoint [1, 25]: 18.979; Molecular Antimicrobial Susceptibility Result [1, 26]: Resistant
3 | O=C(O)c1cn(C2CC2)c2cc(N3CCNCC3)c(F)cc2c1=O [Ciprofloxacin] | 17.68 | Resistant | 33.02 | Sensitive (Antimicrobial wells with pathogen load detected below the control wells (typically >2 cycle thresholds later) may be reported as Sensitive) | Sensitive (Antimicrobial wells with pathogen load detected below the control wells (typically >2 cycle thresholds later) may be reported as Sensitive) | 27.666 | Sensitive (Antimicrobial wells with pathogen load detected below the control wells (typically >2 cycle thresholds later) may be reported as Sensitive) | 27.144 | Sensitive (Antimicrobial wells with pathogen load detected below the control wells (typically >2 cycle thresholds later) may be reported as Sensitive) | 28.104 | Sensitive (Antimicrobial wells with pathogen load detected below the control wells (typically >2 cycle thresholds later) may be reported as Sensitive) | 27.715 | Sensitive (Antimicrobial wells with pathogen load detected below the control wells (typically >2 cycle thresholds later) may be reported as Sensitive) | 27.182 | Sensitive (Antimicrobial wells with pathogen load detected below the control wells (typically >2 cycle thresholds later) may be reported as Sensitive) | 27.128 | Sensitive (Antimicrobial wells with pathogen load detected below the control wells (typically >2 cycle thresholds later) may be reported as Sensitive) | 28.446 | 20.351 | Resistant | Ct at Sensitive Breakpoint [1, 23]: 19.988; Molecular Antimicrobial Susceptibility Result [1, 24]: Resistant; Ct at Sensitive Breakpoint [1, 25]: 21.394; Molecular Antimicrobial Susceptibility Result [1, 26]: Resistant
